Results published in patent US20100093824A1 (priority 2006, published 2010).
pIC50: −log10 of the molar value. Read-outs that look alike come from different tables or passages of the source. Non-standard residues stand in square brackets, D forms with d. Residues, ends and D or L forms follow the SMILES beside them. Nle = CCCC[C@H](N)C(=O)O

Legend:
[1] = system: L protein, the Respiratory Syncytial virus polymerase; type: cell-based, RSV, strain A2; settings: Hep-2 cells, 17AAG 5 μM
[2] = system: poliovirus; parameters: species or system cPVR transgenic mice; settings: mouse, in vivo
[3] = mouse, in vivo, ip
[4] = system: capsid precursor P1; type: cell-based, poliovirus
[5] = system: poliovirus; assay: microbe, parasite or virus in culture; type: cell-based, Poliovirus Mahoney type 1 strain; settings: Enterovirus C, HeLa S3, read-out: inhibition of virus production in vRNA transfected cells
[6] = system: poliovirus; assay: microbe, parasite or virus in culture; type: cell-based, Poliovirus Mahoney type 1 strain; settings: Enterovirus C, HeLa S3, 7 h, read-out: IC50 of inhibition of poliovirus replication
[7] = system: poliovirus; assay: microbe, parasite or virus in culture; type: cell-based, Poliovirus Mahoney type 1 strain; settings: Enterovirus C, Fibroblast, read-out: inhibition of poliovirus replication
[8] = system: poliovirus; type: cell-based

## C=CCNC1=C2C[C@@H](C)CC(OC)[C@H](O)[C@@H](C)/C=C(\C)C(OC(N)=O)C(OC)/C=C\C=C(/C)C(=O)NC(=CC1=O)C2=O (stereo partly shown) [17AAG, 17-Allylamino-17-demethoxygeldanamycin]
[1]
  effect on RSV L protein: causes degradation of L protein
[2]
  viral load in the CNS: dramatically reduced the viral load
[2]; 2.5 mg/kg
  mice with virus decreased to undetectable levels: 4 of 8
[2]; 25 mg/kg
  mice with virus decreased to undetectable levels: 5 of 8
[3]
  apparent toxicity to the treated animal: did not result in any apparent toxicity

## CCCC[C@@H](C=O)NC(=O)[C@H](CC(C)C)NC(=O)[C@H](CC(C)C)NC(C)=O [ALLN, N-Acetyl-L-leucyl-L-leucyl-L-norleucinal] (Ac-Leu-Leu-[Nle]-aldehyde)
[4]
  protection of P1 from GA-induced degradation: protected P1 from degradation

## COC1=C2C[C@@H](C)C[C@H](OC)[C@H](O)[C@@H](C)/C=C(\C)[C@H](OC(N)=O)[C@@H](OC)/C=C\C=C(/C)C(=O)NC(=CC1=O)C2=O [GA, Geldanamycin]
[5]
  inhibition at 2 µM: 95%
[6]
  pIC50: 6.96
[4]
  time in which P1 was readily degraded after treatment: ≤ 3 h
[7]
  inhibition at 0.1 µM: > 99%
[8]
  reduction in virus production: ~50%

## CC(=O)N[C@@H](CSC(=O)[C@]1([C@@H](O)C(C)C)NC(=O)[C@H](C)[C@@H]1O)C(=O)O [lactacystin, Lactacystin]
[4]
  protection of P1 from GA-induced degradation: protected P1 from degradation

## trichostatin A [TSA]
[8]
  maximal reduction in virus production: 30%
